Experimental data as given in publication PMC7077276 (Viruses, 2020).
Entries after “also recorded” stand apart in the source; their conditions may differ.

How the values were obtained:
[1] = molecular target: T1, PCV2 capsid protein (dcapsid) (Porcine circovirus 2, UniProt O56129); assay: Microscale thermophoresis assay (MST), wild-type dcapsid; type: binding, porcine circovirus type 2 (PCV2)
T1 construct: hexahistidine (N); made in house; host or cells: Escherichia coli BL21 (DE3)

[2] = molecular target: T2, PCV2 dcapsid bound to Heparin-Sepharose (Porcine circovirus 2, UniProt O56129); assay: Heparin column chromatography (competitive elution of dcapsid); type: binding, porcine circovirus type 2 (PCV2)
T2 construct: hexahistidine (N); made in house; host or cells: Escherichia coli BL21 (DE3)
T2 sequence (O56129 42-233): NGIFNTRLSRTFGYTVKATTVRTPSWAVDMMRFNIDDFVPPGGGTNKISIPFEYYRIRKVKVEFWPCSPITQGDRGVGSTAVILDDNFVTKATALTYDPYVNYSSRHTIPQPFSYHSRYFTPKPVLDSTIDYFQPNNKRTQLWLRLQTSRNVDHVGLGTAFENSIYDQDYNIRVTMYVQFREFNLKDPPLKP

PCV2 [3] = assay: Infectivity assay (titer, immunoblotting, qPCR, IFA); type: cell-based, porcine circovirus type 2 (PCV2); conditions: for anti-infective (antiviral) effect on PCV2: PK-15 cells, MOI = 1.0
PCV2 dcapsid mutant D70A = molecular target: T3, PCV2 dcapsid mutant D70A (Porcine circovirus 2, UniProt O56129, D70A); assay: Microscale thermophoresis assay (MST), dcapsid mutant D70A; type: binding, porcine circovirus type 2 (PCV2); conditions: read-out: Kd between EGCG and capsid mutant D70A
T3 construct: hexahistidine (N); made in house; host or cells: Escherichia coli BL21 (DE3)
T3 sequence (O56129 42-233 D70A): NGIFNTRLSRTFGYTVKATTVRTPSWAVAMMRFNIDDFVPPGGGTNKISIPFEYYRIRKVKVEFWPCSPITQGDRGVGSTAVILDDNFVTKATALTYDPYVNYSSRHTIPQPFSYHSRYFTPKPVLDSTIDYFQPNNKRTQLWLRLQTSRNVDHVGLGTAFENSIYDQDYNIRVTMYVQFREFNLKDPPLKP

PCV2 dcapsid mutant R51A = molecular target: T4, PCV2 dcapsid mutant R51A (Porcine circovirus 2, UniProt O56129, R51A); assay: Microscale thermophoresis assay (MST), dcapsid mutant R51A; type: binding, porcine circovirus type 2 (PCV2); conditions: read-out: Kd between EGCG and capsid mutant R51A
T4 construct: hexahistidine (N); made in house; host or cells: Escherichia coli BL21 (DE3)
T4 sequence (O56129 42-233 R51A): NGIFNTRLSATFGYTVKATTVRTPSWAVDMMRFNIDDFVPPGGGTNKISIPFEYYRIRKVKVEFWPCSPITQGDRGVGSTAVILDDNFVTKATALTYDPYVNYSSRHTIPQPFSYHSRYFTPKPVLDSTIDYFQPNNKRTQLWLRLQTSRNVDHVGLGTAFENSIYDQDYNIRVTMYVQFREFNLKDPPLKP

PCV2 dcapsid mutant R73A = molecular target: T5, PCV2 dcapsid mutant R73A (Porcine circovirus 2, UniProt O56129, R73A); assay: Microscale thermophoresis assay (MST), dcapsid mutant R73A; type: binding, porcine circovirus type 2 (PCV2); conditions: read-out: Kd between EGCG and capsid mutant R73A
T5 construct: hexahistidine (N); made in house; host or cells: Escherichia coli BL21 (DE3)
T5 sequence (O56129 42-233 R73A): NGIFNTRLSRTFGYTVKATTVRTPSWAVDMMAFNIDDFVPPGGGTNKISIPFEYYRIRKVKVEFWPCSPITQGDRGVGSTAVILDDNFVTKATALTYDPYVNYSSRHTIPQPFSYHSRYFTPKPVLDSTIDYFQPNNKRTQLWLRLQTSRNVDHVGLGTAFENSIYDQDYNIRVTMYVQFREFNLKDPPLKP

PCV2 mutant viruses = assay: Infectivity assay of rescued PCV2 mutant viruses; type: cell-based, porcine circovirus type 2 (PCV2); conditions: 100 μM, whole infective process, titers at 72 hpi
[4] = tested on: PCV2 dcapsid mutants bound to heparin column; assay: Heparin column chromatography of dcapsid mutants; type: binding, porcine circovirus type 2 (PCV2)
PCV2 virions = assay: Binding assay of virions to PK-15 cells (qPCR, flow cytometry); type: cell-based, porcine circovirus type 2 (PCV2); conditions: 100 μM, binding 1 h at 4 °C, MOI = 5.0
PK-15 cells = assay: Cytotoxicity assay (CCK8); type: cell-based, Porcine
PCV2 dcapsid mutant D78A = molecular target: T6, PCV2 dcapsid mutant D78A (Porcine circovirus 2, UniProt O56129, D78A); assay: Microscale thermophoresis assay (MST), dcapsid mutant D78A; type: binding, porcine circovirus type 2 (PCV2); conditions: read-out: Kd between EGCG and capsid mutant D78A
T6 construct: hexahistidine (N); made in house; host or cells: Escherichia coli BL21 (DE3)
T6 sequence (O56129 42-233 D78A): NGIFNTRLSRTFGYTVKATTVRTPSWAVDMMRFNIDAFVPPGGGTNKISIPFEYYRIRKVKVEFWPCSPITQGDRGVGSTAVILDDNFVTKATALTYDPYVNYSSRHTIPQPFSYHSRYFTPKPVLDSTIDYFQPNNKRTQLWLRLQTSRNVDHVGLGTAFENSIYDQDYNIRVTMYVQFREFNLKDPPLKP

PCV2 dcapsid mutant N75A = molecular target: T7, PCV2 dcapsid mutant N75A (Porcine circovirus 2, UniProt O56129, N75A); assay: Microscale thermophoresis assay (MST), dcapsid mutant N75A; type: binding, porcine circovirus type 2 (PCV2); conditions: read-out: Kd between EGCG and capsid mutant N75A
T7 construct: hexahistidine (N); made in house; host or cells: Escherichia coli BL21 (DE3)
T7 sequence (O56129 42-233 N75A): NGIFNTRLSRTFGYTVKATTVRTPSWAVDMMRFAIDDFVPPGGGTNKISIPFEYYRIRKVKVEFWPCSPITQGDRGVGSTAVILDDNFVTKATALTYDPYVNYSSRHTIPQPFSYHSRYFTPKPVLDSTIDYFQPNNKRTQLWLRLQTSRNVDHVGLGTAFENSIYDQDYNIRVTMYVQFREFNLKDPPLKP

PCV2 dcapsid mutant G54A = molecular target: T8, PCV2 dcapsid mutant G54A (Porcine circovirus 2, UniProt O56129, G54A); assay: Microscale thermophoresis assay (MST), dcapsid mutant G54A; type: binding, porcine circovirus type 2 (PCV2); conditions: read-out: Kd between EGCG and capsid mutant G54A
T8 construct: hexahistidine (N); made in house; host or cells: Escherichia coli BL21 (DE3)
T8 sequence (O56129 42-233 G54A): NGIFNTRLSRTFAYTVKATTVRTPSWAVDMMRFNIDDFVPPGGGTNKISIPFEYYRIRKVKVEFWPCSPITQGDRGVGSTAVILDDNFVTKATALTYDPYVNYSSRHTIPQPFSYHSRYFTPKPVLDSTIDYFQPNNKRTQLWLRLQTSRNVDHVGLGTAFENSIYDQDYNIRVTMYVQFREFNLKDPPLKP

PCV2 [5] = assay: Time of addition and dilution experiment; type: cell-based, porcine circovirus type 2 (PCV2); conditions: for inhibitory effect of post-infection treatment: immunoblotting at 72 hpi

T1 sequence (O56129 42-233): as the sequence (O56129 42-233) above

`Oc1cc(O)c2c(c1)O[C@H](c1ccc(O)c(O)c1)[C@H](O)C2` [EC, epicatechin, reference compound] was tested, and the Kd [1] was 951.3 ± 6.81 µM, the “lower affinity to capsid than EGCG” value ([1]; MST, ratio of Kd) was 10 fold and the “dcapsid protein fraction eluted from heparin column” value (from here on “dcapsid protein fraction eluted”) ([2]; competitor 0.05 mg/mL) was 10.33 ± 4.50%. For the same molecule, the “anti-infective (antiviral) effect on PCV2” value (PCV2 [3]; 100 μM) was “no considerable anti-infective effect; also recorded: did not exert an antiviral effect”.
For `O=C(O[C@@H]1Cc2c(O)cc(O)cc2O[C@@H]1c1cc(O)c(O)c(O)c1)c1cc(O)c(O)c(O)c1` [EGCG, Epigallocatechin gallate], the Kd (PCV2 dcapsid mutant D70A) was 863.7 ± 7.23 µM, the Kd (PCV2 dcapsid mutant R51A) was 591 ± 5.57 µM and the Kd (PCV2 dcapsid mutant R73A) was 971 ± 9.54 µM. The “antiviral effect on PCV2 (D70A) and PCV2 (D78A)” value (PCV2 mutant viruses) was “could not be detected”, the “antiviral effect on PCV2 (G54A), PCV2 (N75A), PCV2 (WT) and PCV2 (A135A)” value (PCV2 mutant viruses) was “could inhibit the infectivity” and the Kd [1] was 98 ± 4.76 µM. For the same molecule, the “eluted level of R51A, D70A, R73A and D78A mutants” value ([4]; 0.5 mg/mL EGCG, especially D70A and D78A) was “remarkably reduced”, the “bound PCV2 particles (qRT-PCR)” value (PCV2 virions) was “decrease significantly” and the “proportion of PCV2-attached cells (flow cytometry)” value (PCV2 virions; untreated ~70%) was ~ 55%. The “dcapsid protein fraction eluted” value ([2]; competitor 0.05 mg/mL) was 42.33 ± 3.52%, the “dcapsid protein fraction eluted” value ([2]; competitor 0.5 mg/mL) was 90.00 ± 5.29% and the “cytotoxicity to PK-15 cells” value (PK-15 cells; 100 μM, 24 h, 72 h and 120 h) was “did not generate significant cytotoxicity; also recorded: without causing significant toxicity”. The “cytotoxicity to PK-15 cells” value (PK-15 cells; 200 μM) was “could produce cytotoxicity”, the “inhibitory effect of PCV2 infection (immunoblotting, qPCR)” value (PCV2 [3]; 10 μM, 72 hpi) was “still detectable” and the “viral capsid protein expression (immunoblotting)” value (PCV2 [3]; 100 μM, 72 hpi) was “reduced level”. The “viral genome copy number (qPCR)” value (PCV2 [3]; 100 μM, 72 hpi) was “reduction”, the “quantity of PCV2 infected cells (IFA)” value (PCV2 [3]; 100 μM, MOI = 1.0, vs. without treatment) was “obviously lower” and the “anti-infective (antiviral) effect on PCV2” value (PCV2 [3]; 100 μM) was “exhibited an inhibitory effect”. The “virus titer of PCV2 infected cells” value (PCV2 [3]; 100 μM, whole infective process, various time points, vs. without treatment) was “significant decrease”, the Kd (PCV2 dcapsid mutant D78A) was 1061 ± 8.08 µM and the Kd (PCV2 dcapsid mutant N75A) was 164 ± 5.29 µM. For the same molecule, the Kd (PCV2 dcapsid mutant G54A) was 99.3 ± 9.29 µM, the “inhibitory effect of post-infection treatment” value (PCV2 [5]; 100 μM for 4 h or 12 h after PCV2 infection) was “significant inhibitory effect could not be detected” and the “inhibitory effect of post-infection treatment” value (PCV2 [5]; 100 μM for 24 h after PCV2 infection) was “only a slight effect”. For the same molecule, the “inhibitory effect, pre-treated cells group” value (PCV2 [5]; cells pre-exposed 60 min at 37 °C, then infected, 72 hpi, immunoblotting, qPCR, titer) was “inhibitory effect could not be detected”, the “antiviral effect in dilution assay” value (PCV2 [5]; virions pretreated with 100 μM, diluted 10-fold before inoculation, immunoblotting, qPCR, titer) was “antiviral effect could still be detected” and the “antiviral effect, pre-treated virions group” value (PCV2 [5]; virus premixed with 10 μM, 72 hpi) was “non-sensitive”. For the same molecule, the “antiviral effect, pre-treated virions group” value (PCV2 [5]; virus premixed with 100 μM, 72 hpi) was “prominent antiviral effect”.
heparin [reference compound] was tested, and the “eluted level of R51A and R73A mutants” value ([4]; 0.5 mg/mL heparin) was “most significant eluted reduction”.
